Read-outs that look alike come from different tables or passages of the source.
Key:
[1] = system: P. falciparum FCR-3 strain (ATCC 30932); experiment: Screening of malarial protozoan growth inhibition (culture assay); type: cell-based; conditions: for EC50: Plasmodium falciparum, Erythrocyte, read-out: P. falciparum EC50; for Ratio of Selective Toxicity for Malarial Protozoan <chemotherapeutic coefficient>: [EC50 for mouse FM3A cell]/[EC50 for tropical fever malarial protozoan]; for malarial protozoan growth inhibiting activity (in words): summary of Table 1
Description: In this experiment, P. falciparum FCR-3 strain (ATCC 30932) was employed as the tropical fever malarial protozoan. In order to verify the effect of the commercially available anti-malarial agent chloroquin on resistant strains, a chloroquin resistant malarial protozoan of the P. falciparum K1 strain was employed. The medium used in this experiment was a filter-sterilized RPMI1640 medium which was adjusted to pH 7.4 and supplemented with 10% human serum. The malarial protozoan was cultured under 5% O2, 4% CO2 and […] at 36.5° C. The hematocrit level (% volume of erythrocyte in erythrocyte suspension) was adjusted to 5% for use. The initial infection rate with the tropical fever malarial protozoan at the beginning of the cultivation was 0.1%. The cultivation was performed using a 24-well cultivation plate, replacing the culture medium everyday, and subcultured at an infection rate of 4%. The infection rate was obtained by making a thin layer smear preparation, which was subjected to Giemsa staining or Diff-Qick staining, and observed microscopically (immersed in oil, magnified to ×1000) after which the malarial protozoan infection rate was determined using the following equation.
Malarial protozoan infection rate=[(number of infected erythrocyte)/(total number of erythrocyte)]×100 The cultured malarial protozoan-infected erythrocyte was collected by centrifugation, and washed with a serum-supplemented medium, after which a non-infected erythrocyte was added to adjust the initial infection rate to 0.3%. At this time, the hematocrit rate was 3%. The sample used in the test was obtained by dissolving in sterilized water, dimethylformamide (DMF), or dimethylsulfoxide (DMSO) to create samples of desired concentration.
5 to 10 μl of the sample were added to a 24-well cultivation plate. The samples were tested in duplicates or triplicates. As a control, 10 μl/well of sterilized water, DMF or DMSO was employed.
Subsequently, to the above medium, 990 to 995 μl of the tropical fever malarial protozoan culture medium previously prepared were added by gentle pipetting to create a uniform suspension. The culture plate was incubated for 72 hours in a CO2—O2—N2 (5%, 5%, 90%) incubator, after which thin layer smear preparations of each well was made, stained, and observed microscopically, to determine the infection rate together with the infection rate for the control.
From the malarial protozoan infection rate obtained by the method described above, the reproductive rate was calculated, whereby obtaining the 50% growth inhibition concentration (EC50) for malarial protozoan.
Reproductive rate={([b]−[a])/([c]−[a])}×100 a: initial infection rate b: infection rate with sample added c: infection rate without sample (Control)

[2] = system: mouse breast cancer FM3A cells (F28-7 strain); experiment: Mouse FM3A cell growth inhibition test; type: cell-based; conditions: read-out: FM3A EC50
Description: An F28-7 strain, a wild cell strain derived from mouse breast cancer FM3A cells was employed. A medium was prepared by supplementing an ES medium with 2% inactivated fetal calf serum, and incubated at 37° C. under 5% CO2. Under these conditions, the doubling time of the FM3A cell was about 12 hours.
Following preincubation, the cells in logarithmic growth phase were diluted with the medium to 5×10^4 cells/ml. The sample used was one prepared for the anti-malarial activity test of the malaria protozoan. 5 to 10 μl of the samples were added to a 24-well cultivation plate (final concentration after addition of medium was 1×10^−4 to 1×10^−6). The compounds were tested in duplicates or triplicates, and wells containing 10 μl of sterilized water, DMF or DMSO were also prepared as a control. Subsequently, 990 to 995 μl of the cultured cell suspension previously prepared were added by gentle pipetting, and uniformly suspended in the medium. After incubating for 48 hours, the number of cells in each well was counted using SELF CONTROLLER (CC-108, Toa Medical Electrics) and the reproductive rate was calculated by using the following equation.
Reproductive rate (%)={([C]−[A])/([B]−[A])}×100
A: initial number of cells
B: number of control cell after 48 hours
C: number of cells after 48 hours from sample addition
The cell growth inhibition activity was calculated from the number of cells in the well containing the sample and the number of cells in the control. From the results thus obtained, the cytotoxicity of each sample was evaluated and represented as the cell growth inhibition concentration (EC50). The EC50 value is the concentration (expressed as molar concentration) of a sample necessary to inhibit the reproductive rate of the control by 50%, wherein the reproductive rate or the rate of malarial protozoan infection for the control in which samples are not added to the medium of malarial protozoan or FM3A cell, is regarded as 100%.

SMILES: O=C(C[C@@H]1NCCC[C@H]1O)Cn1cnc2ccccc2c1=O [Formula A0, reference compound]
- EC50 ([1]; 72 h): 190 nM
- Ratio of Selective Toxicity for Malarial Protozoan <chemotherapeutic coefficient> [1]: 105
- EC50 ([2]; 48 h): 20000 nM

SMILES: O=C(C[C@H]1NCCC[C@@H]1O)Cn1cnc2ccccc2c1=O [A, (2′R, 3′S)-febrifugine]
- EC50 ([1]; 72 h): 0.3 nM
- Ratio of Selective Toxicity for Malarial Protozoan <chemotherapeutic coefficient> [1]: 2667
- malarial protozoan growth inhibiting activity (in words) [1]: selective malarial protozoan growth inhibiting activity
- EC50 ([2]; 48 h): 800 nM

SMILES: O=c1c2ccccc2ncn1CC1(O)C[C@@H]2NCCC[C@@H]2O1 (stereo partly drawn) [B, (2′S, 3′S)-isofebrifugine]
- EC50 ([1]; 50% growth inhibition concentration, infected erythrocytes, 72 hours incubation, infection rate by stained smear): 0.076 nM
- Ratio of Selective Toxicity for Malarial Protozoan <chemotherapeutic coefficient> [1]: 2895
- malarial protozoan growth inhibiting activity (in words) [1]: selective malarial protozoan growth inhibiting activity
- EC50 ([2]; cell growth inhibition concentration (cytotoxicity), 48 hours incubation, cell count): 220 nM

SMILES: O=c1c2ccccc2ncn1CC1(O)C[C@@H]2NCCC[C@H]2O1 (some centres unmarked) [Formula B0, reference compound]
- EC50 ([1]; 72 h): 200 nM
- Ratio of Selective Toxicity for Malarial Protozoan <chemotherapeutic coefficient> [1]: 110
- EC50 ([2]; 48 h): 22000 nM
